O=c1[nH]c(=O)n(C2CCCO2)cc1F (centres undefined)
solubility (mole fraction)
Conditions	273.15 K	278.15 K	283.15 K	288.15 K	293.15 K	298.15 K	303.15 K	308.15 K	313.15 K
in acetone	0.00932	0.0115	0.014	0.0168	0.0196	0.0233	0.0277	0.0326	0.0388
in ethanol	0.00118	0.00152	0.00198	0.00253	0.00318	0.00402	0.00506	0.00629	0.00767
in ethyl acetate	0.00607	0.00718	0.00837	0.00957	0.0109	0.0122	0.0137	0.0153	0.0175
in isopropanol	0.00086	0.00109	0.00139	0.00179	0.00227	0.00286	0.00358	0.00444	0.00547
in methanol	0.00362	0.00428	0.00495	0.00592	0.00692	0.00802	0.00925	0.0107	0.0126
in n-propanol	0.00112	0.00141	0.00176	0.00223	0.00274	0.00343	0.0042	0.00516	0.00618

From BigSolDB 2.1
